Test results published in patent US20220251517A1.
Counter-ions that a name gives are not always drawn.

Experiments:
[1] = test system: arrhythmic cardiac microtissues (hiPSC-CM, cell line 1); assay: Anti-arrhythmic drug testing on arrhythmic cardiac microtissues (optical mapping)
[2] = test system: cardiac microtissues (hiPSC-CMs and human cardiac fibroblasts); assay: Arrhythmia induction in 3D cardiac microtissues (brightfield beat rate, optical mapping, stimulation capture); format: cell-based; settings: for presence of arrhythmias at endpoint: N=3
Procedure: (§1) Tissues were allowed to compact for 7 days (Day -7 to 0) and treatment with either arrhythmogenic or control media conditions began on day 8 post-seeding (e.g. Day 0 in FIG. 1A). Arrhythmogenic media consisted of DMEM no glucose (ThermoFisher; 11966025), B-27 minus insulin supplement (1×; ThermoFisher; A1895602), HEPES (10 mM), L-carnitine (2 mM), creatine (5 mM), taurine (5 mM), MEM non-essential amino acids ([…]; ThermoFisher; 11140050), insulin-transferrin-selenium (1×; ThermoFisher; 41400045), galactose (10 mM), MBCD or MBCD-conjugated FAs as follows: hiPSC-CMs were treated with 100 μM FAs (linoleic acid 40 μM, oleic acid 40 μM, and palmitic acid 20 μM; MBCD 0.8 mM); and hESC-CMs were treated with 200 μM FAs (linoleic acid 80 μM, oleic acid 80 μM, and palmitic acid 40 μM; MBCD 1.6 mM)), glutamine (1 mM), and antibiotic-antimycotic. […] Instead, control media were supplemented with glucose (5 mM) and either FA vehicles (MBCD) at a lower dose of MBCD than the arrhythmogenic media (0.5 mM) or no MBCD (to confirm MBCD was the arrhythmogenic agent). Microtissues were treated by addition of media containing the components described above for up to 5 days and analyzed (e.g., imaging, tissue harvesting for isolation of RNA for transcriptomic analysis, fixing tissues for histopathological assessments/staining) at different time points to assess functional and transcriptomic parameters (see FIG. 1A).
During contractile force measurements, cardiac microtissues were electrically stimulated at 1 Hz and at their respective excitation threshold and videos of the 1:30 PDMS rods were taken for 15 seconds under 10× magnification with a Leica EC3 camera. For tissue compaction and spontaneous beating rate measurements, the tissues were not stimulated.
To assess the range of stimulation capture, microtissues were stimulated by a silver electrode at 3 Hz and 6V, and the distance from the electrode to which point the cardiac microtissue was not electrically captured by the delivered electrical impulse was marked as the range of stimulation capture (mm) (e.g., see FIG. 1H).

[3] = test system: 5-day arrhythmic cardiac microtissues; assay: Arrhythmia reversal by removal of MBCD from media; format: cell-based, human; settings: 5 days arrhythmogenic media
Procedure: as §1
Finally, it was reasoned that if MBCD was causing arrhythmias, removal of MBCD from culture media could reverse arrhythmias. To test this, 5-day arrhythmogenic tissues were cultured in control media for 5 additional days (see FIG. 6A). […] Arrhythmic tissues progressively regained synchronicity, allowing for the measurement of beat frequency.

[4] = arrhythmic tissues, acute treatment 30 min, lidocaine 17.5 μg/mL
[5] = isoproterenol added to lidocaine-treated arrhythmic tissues

CCN(CC)CC(=O)Nc1c(C)cccc1C [lidocaine, Lidocaine HCl]
conduction velocity [1, 4]: significantly decreased | cycle length duration [1, 4]: increasing | mean number of wavefronts per frame [1, 4]: significant reduction

BSA-ligated fatty acids: BSA-ligated fatty acids used in place of MBCD-conjugated fatty acids
induction of arrhythmogenesis ([2]; BSA-ligated fatty acids instead of MBCD-conjugated fatty acids): no effect

CC(C)NCC(O)c1ccc(O)c(O)c1 (stereo not drawn) [isoproterenol]
conduction velocity [1, 5]: increase | cycle length [1, 5]: reduction | mean wavefronts per frame [1, 5]: no change

methyl-β-cyclodextrin [MBCD]
development of arrhythmias ([2]; low MBCD concentration 0.5 mM (control media), 5 days): did not develop arrhythmias | presence of arrhythmias at endpoint ([2]; media containing both MBCD and glucose (5mM), 5 days): arrhythmias were also induced | Cx43 and N-Cad expression and co-localization after arrhythmia reversal ([3]; then 5 days control media): significant increase | passive force after arrhythmia reversal ([3]; then 5 days control media): without significant changes | synchronicity after removal of MBCD ([3]; then 5 days control media): started beating synchronously | contractile force of reverted tissues relative to age matched control tissues ([3]; then control media, plateau, p<0.0001): ~50%

CCCCc1oc2ccccc2c1C(=O)c1cc(I)c(OCCN(CC)CC)c(I)c1 [amiodarone, Amiodarone]
electrophysiological changes (wavefronts per frame, conduction velocity, cycle length) ([1]; arrhythmic tissues, acute treatment 30 min, flecainide 10 μM, propranolol 4 μg/mL, amiodarone 30 μg/mL): did not produce any significant electrophysiological changes

O=C[C@H](O)[C@@H](O)[C@@H](O)[C@H](O)CO [galactose]
presence of arrhythmias at endpoint ([2]; media containing only galactose (10 mM), no MBCD): did not become arrhythmic
